“Also recorded” adds a separate entry of the source.
Assays:
[1] = target: T1, P2X receptor (vas deferens) (Cavia porcellus, UniProt A0A286XVA9); test: Contraction of guinea pig isolated vas deferens
T1 sequence (A0A286XVA9 1-399): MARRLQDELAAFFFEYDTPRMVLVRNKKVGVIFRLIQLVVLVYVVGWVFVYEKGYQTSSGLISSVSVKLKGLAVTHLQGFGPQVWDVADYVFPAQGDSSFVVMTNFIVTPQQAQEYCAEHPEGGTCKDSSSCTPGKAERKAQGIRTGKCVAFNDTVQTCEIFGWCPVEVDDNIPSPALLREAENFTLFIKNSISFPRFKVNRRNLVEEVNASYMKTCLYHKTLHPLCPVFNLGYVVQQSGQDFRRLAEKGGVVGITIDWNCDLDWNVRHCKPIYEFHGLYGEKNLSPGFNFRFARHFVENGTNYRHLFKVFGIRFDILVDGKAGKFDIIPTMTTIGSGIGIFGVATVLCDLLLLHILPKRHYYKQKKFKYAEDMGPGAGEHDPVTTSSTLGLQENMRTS

P2X and P2Y receptors = test: Overall activity in the seven P2X and P2Y preparations
[2] = target: T2, P2X receptor (urinary bladder) (Cavia porcellus, UniProt A0A286XVA9); test: Contraction of guinea pig isolated urinary bladder detrussor muscle; settings: for activity/potency in words, bladder: guinea pig urinary bladder
T2 construct: guinea pig isolated urinary bladder detrussor muscle; from tissue; host or cells: guinea pig isolated urinary bladder detrusor muscle

[3] = target: T3, P2Y receptor (taenia coli) (Cavia porcellus, UniProt P59902); test: Relaxation of carbachol-contracted guinea pig taenia coli
T3 construct: Relaxant responses mediated via P2Y receptors were examined in guinea pig taenia coli; from tissue; host or cells: guinea pig taenia coli (carbachol-contracted)
T3 sequence (P59902 whole entry): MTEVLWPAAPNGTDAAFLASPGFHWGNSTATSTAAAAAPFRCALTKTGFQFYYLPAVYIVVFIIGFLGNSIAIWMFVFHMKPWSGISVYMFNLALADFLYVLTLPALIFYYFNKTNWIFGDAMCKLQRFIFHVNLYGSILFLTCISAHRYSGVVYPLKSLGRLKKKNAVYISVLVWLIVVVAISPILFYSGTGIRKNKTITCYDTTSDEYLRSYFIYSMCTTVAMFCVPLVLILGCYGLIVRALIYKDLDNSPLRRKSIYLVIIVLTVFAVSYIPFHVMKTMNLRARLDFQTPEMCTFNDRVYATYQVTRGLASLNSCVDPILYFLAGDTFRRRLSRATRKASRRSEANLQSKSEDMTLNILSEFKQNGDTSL
Outline: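 Guinea pig taenia coli precontracted with 50 nM carbachol; relaxation to applied P2Y agonists expressed as percentage relaxation against negative log molar agonist concentration.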

[4] = system: P2X receptor (rat urinary bladder membranes); test: Displacement of [3H]-α,β-methylene-ATP from rat urinary bladder membranes; assay type: binding; settings: about 10 nM [3H]-α,β-MeATP
Description: Certain ATP analogs known to bind to P2Y receptors, as disclosed in Examples 4-9, were tested on membrane preparations of urinary bladder, which is known to include P2X receptors (See, e.g., Lukacsko et al., Eur. J. Pharmacol., 80, 401-406 (1982)). The assay used is predicated on the specific displacement of […] known to bind at the P2X receptor, namely α,β-methylene-ATP.
For this assay, male Wistar rats (200-250 g) were killed by asphyxiation with CO2. […] The pellets were washed and suspended in buffer A and the protein content was determined using the method of Peterson (Anal. Biochem., 83, 346-356 (1977)).
Displacement experiments were carried out by incubating the membrane preparations with about 10 nM [^3 H]-α,β-MeATP and various concentrations of an unlabeled ligand in buffer A at 4° C. for 120 min (final volume 0.5 ml). […] The filters were washed with 2 aliquots of 5 ml ice-cold 5 mM Tris/HCl buffer, pH 7.4, dried under an infrared lamp, and then the radioactivity trapped in the filters was measured in a Beckman SC6100 I scintillation counter with an efficiency of about 56 to 61%. Non-specific binding was determined by including 100 μM β,γ-methylene-ATP in the incubation mixture.

## N#CCCCCCCSc1nc(N)c2ncn([C@@H]3O[C@H](COP(=O)(O)OP(=O)(O)OP(=O)(O)O)[C@@H](O)[C@H]3O)c2n1 [2-(6-Cyanohexylthio)-ATP, 2-(6-Cyanohexylthio)adenosine-5'-triphosphate]
[1]
  activity/potency in words, vas deferens: potent agonists in the vas deferens and urinary bladder
P2X and P2Y receptors
  overall activity in words, all preparations: more potent than ATP in all systems except the P2X system of the saphenous artery
[2]
  activity/potency in words, bladder: it produced tonic contractions rather than the phasic; also recorded: much less potent than ATP under the same conditions
[2]; guinea pig urinary bladder P2X receptors
  times more potent than ATP, bladder: approximately 100 times
[2]; listed as 2-(6-cyanohexyl)thio ATP
  activity/potency in words, bladder: produced tonic contractions rather than the typical phasic contractions of ATP
[2]; listed as 2-(6-cyanohexyl)thio-ATP
  activity/potency in words, bladder: produced contractions that were less tonic, and with a lower potency than ATP under the same conditions
[2]; listed as 2-(6-cyanohexylthio)-ATP
  activity/potency in words, bladder: potent agonists in the vas deferens and urinary bladder
[3]
  EC50: 1.58 nM

## C=CCCCCSc1nc(NC)c2ncn([C@@H]3O[C@H](COP(=O)(O)OP(=O)(O)OP(=O)(O)O)[C@@H](O)[C@H]3O)c2n1 [N^6 -Me-2-(5-hexenyl)-thio-ATP, N^6 -Me-2-(5-hexenylthio)adenosine 5'-triphosphate]
[4]
  P2X binding in words: two orders of magnitude greater concentration
[3]; guinea pig taenia coli, log molar units
  relaxation pD2, taenia coli: 7.2

— patent US5620676A, “Biologically active ATP analogs” (priority 1995, dated 1997)
